Assay results from paper PMC7607426, “Vicinal difluorination as a C=C surrogate: an analog of piperine with enhanced solubility, photostability, and acetylcholinesterase inhibitory activity” (Beilstein Journal of Organic Chemistry, 2020).

Molecular target: acetylcholinesterase (AChE) (Electrophorus electricus, UniProt O42275)
Assay: colorimetric AChE inhibition assay
Type: biochemical

acetylcholinesterase (AChE), sequence (O42275 24-633): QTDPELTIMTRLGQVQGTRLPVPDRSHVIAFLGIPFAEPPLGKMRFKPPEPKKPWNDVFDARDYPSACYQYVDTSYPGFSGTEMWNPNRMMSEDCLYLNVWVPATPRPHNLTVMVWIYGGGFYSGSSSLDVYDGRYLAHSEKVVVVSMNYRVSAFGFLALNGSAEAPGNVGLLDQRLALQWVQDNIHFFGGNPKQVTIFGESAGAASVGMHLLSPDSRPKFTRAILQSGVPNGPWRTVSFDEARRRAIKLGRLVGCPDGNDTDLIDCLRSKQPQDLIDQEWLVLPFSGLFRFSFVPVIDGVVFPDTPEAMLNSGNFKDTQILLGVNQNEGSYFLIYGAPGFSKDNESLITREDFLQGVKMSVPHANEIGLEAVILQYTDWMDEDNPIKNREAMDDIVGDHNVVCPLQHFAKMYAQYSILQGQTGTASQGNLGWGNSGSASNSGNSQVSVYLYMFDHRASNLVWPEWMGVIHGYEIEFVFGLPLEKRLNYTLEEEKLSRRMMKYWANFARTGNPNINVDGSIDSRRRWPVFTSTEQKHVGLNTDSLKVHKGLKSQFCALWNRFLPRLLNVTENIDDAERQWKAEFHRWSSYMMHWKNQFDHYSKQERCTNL

With `O=C([C@@H](F)[C@H](F)CCc1ccc2c(c1)OCO2)N1CCCCC1` [compound 2, analog 2] the IC50 was 51.7 µM.
